Ends that are not written are not given here.
How the values were obtained:
[1] = tested on: CT26; test: MTS assay, relative cell viability, CT26; assay type: cell-based, murine
Procedure: Individual cell lines (HeLa, CT26, and B16F10) were purchased from the Korean Cell Line Bank. Dulbecco's modified Eagle's medium (DMEM), trypsin-EDTA, fetal bovine serum (FBS), and Hank's balanced salt solution (HBSS) were products from Gibco (Thermo Fisher).
Each of the cell lines was cultured in DMEM supplemented with 10% FBS in an incubator maintained at 37° C. and 5% 002.
Examination was made to see whether the peptide has the activity of inducing cell death in other cancer cell lines. […]

[2] = Two-step assay, damage on lipid membrane of liposomes (TbCl3/DPA fluorescence); assay type: biochemical; settings: for Relative Fluorescence Intensity: liposomes, excitation 276 nm, read at 490 nm
Procedure: In brief, DOPS, DOPE, and DOPC (Avanti Polar Lipids) were dissolved at the ratio of 2:4:3 in chloroform, followed by vaporization. The residue was again dissolved at the concentration of 2 mg/mL in TbCl3 buffer (15 mM TbCl3, 50 mM sodium citrate, 20 mM HEPES, 150 mM NaCl, pH 7.4). The lipid mixture was extruded by Mini extruder (Avanti Polar Lipids) with a 400 nm to prepare liposomes which were washed with washing buffer (150 mM NaCl, 20 mM HEPES, pH 7.4) and then resuspended in an assay buffer (50 DPA, […], 20 mM HEPES, pH 7.4). The suspension was plated into 96-well plates and treated with 0, 10, or 25 μM of eMTD (SEQ ID NO: 1) or eMTDΔ4 (SEQ ID NO: 2). After stimulation with 276 nm laser, fluorescence was read at 490 nm.

[3] = tested on: HeLa cells; test: Mitochondrial PTP opening, calcein AM and cobalt ions; assay type: cell-based, human; settings: calcein AM 1 μM and cobalt ions 2 mM
Procedure: Mitochondria are known to open permeability transition pores (PTP) to allow cytosolic calcium influx. The observation that eMTDΔ4 (SEQ ID NO: 2) migrates to mitochondria and induces cytosolic calcium influx led to investigating the association of the action of eMTDΔ4 (SEQ ID NO: 2) with PTP. To this end, PTP opening was monitored using calcein AM and cobalt ions.
In brief, HeLa cells were grown on a Lab-Tek chamber glass slide one day before the experiment. Immediately before the experiment, the cells were stained with 1 μM of calcein AM and 2 mM of cobalt ions for 20 min and then with 0.1 μM of MitoTracker Red for 2 min. When PTP is opened, mitochondrial calcein AM meets cobalt ions so that the fluorescence of calcein AM is quenched.

KLNFRQKLLNLISKLF [eMTDΔ4]
Viability (%) ([1]; CT26, 10 μM): 69%
Viability (%) ([1]; CT26, 20 μM): 21%
induction of cell death (in words) ([1]; CT26, FIG. 3 and Table 4): induce cell death
liposome lipid membrane damage (in words) ([2]; FIGS. 10A to 10C and Table 6): higher fluorescence intensity was detected
Relative Fluorescence Intensity ([2]; 10 μM): 25%
Relative Fluorescence Intensity ([2]; 25 μM): 51%
mitochondrial PTP opening (calcein AM fluorescence) [3]: fluorescence of mitochondrial calcein AM was quenched
